{"source": "patent US20240277732A1", "about": "“COMPOSITIONS AND METHODS FOR TREATING BRAIN-GUT DISORDERS” (Enterin, Inc., priority 2018, published 2024)", "type_in_all_cases": "in vivo, human", "key": {"[1]": {"test": "Phase 2 trial Stage 2: systolic blood pressure"}, "[2]": {"test": "Phase 2 trial: pharmacokinetics of orally administered squalamine (ENT-01)", "details": "estimated against IV squalamine PK of prior clinical studies", "protocol": "Pharmakokinetics: PK data were collected on the 10 patients enrolled in Stage 1 and 10 patients enrolled in Stage 2 to determine the extent of systemic absorption. In Stage 1, PK data were obtained at each visit, pre-medication, at 1, 2, 4, 8 and 24 hours (Table 10). In Stage 2, PK was measured on days 1 and 6 of the randomization period pre-medication, at 1, 2, 4 and 8 hours (Table 11).\nThe mean Cmax, Tmax and T1/2 and AUC of the squalamine ion following squalamine (ENT-01) oral dosing for Stage 1 patients. The PK analyses are only approximate, as the lower limit of the validated concentration range was 10 ng/ml; most of the measured concentrations fell below that value. The mean Cmax, Tmax and T1/2 and AUC of the squalamine ion following squalamine (ENT-01) oral dosing for Stage 2 patients. The PK analyses are only approximate, as the lower limit of the validated concentration range was 0.5 ng/ml."}, "[3]": {"test_system": "patients with PD and constipation", "test": "Phase 2 trial Stage 2: CNS symptoms (UPDRS, MMSE, PDHQ, BDI-II, sleep diary)", "source_text": "Exploratory end-points, in addition to constipation, included for example, (i) depression assessed using the Beck Depression Inventory (BDI-II) (Steer et al. 2000) and Unified Parkinson's Disease Rating Scale (UPDRS); (ii) cognition assessed using the Mini Mental State Examination (MMSE) (Palsteia et al. 2018), Unified Parkinson's Disease Rating Scale (UPDRS), and Trail Making Test (TMT); (iii) sleep and REM-behavior disorder (RBD) using a daily sleep diary, I-Button Temperature Assessment, a REM sleep behavior disorder (RBD) questionnaire (RBDQ) (Stiasny-Kolster et al. 2007), and the UPDRS; (iv) hallucinations assessed using the PD hallucinations questionnaire (PDHQ) (Papapetropoulos et al. 2008), the UPDRS, and direct questioning; (v) fatigue using the Parkinson's Disease Fatigue Scale (PFS-16) and the UPDRS; (vi) motor functions using the UPDRS; and (vii) non-motor functions using the UPDRS.\n(§1) Assessments were made at baseline and at the end of the fixed dose and washout periods. Circadian system status was evaluated by continuously monitoring wrist skin temperature (Thermochron iButton DS1921H; Maxim, Dallas) following published procedures (Sarabia et al. 2008).\nCNS Symptoms in Stage 2: An exploratory analysis was done with respect to the sleep data, the body temperature data, mood, fatigue, hallucinations, cognition and other motor and non-motor symptoms of PD. Continuous measurements within a subject were compared with a paired t-test and continuous measurements between subject groups were compared with a two-group t-test. Categorical data were compared with a chi-squared test or a Fisher's exact test if the expected cell counts are too small for a chi-squared test."}, "[4]": {"test_system": "patients with PD and constipation", "test": "Phase 2 trial Stage 2: circadian rhythm of wrist skin temperature", "protocol": "as §1\nCircadian rhythm of skin temperature was evaluable in 12 patients (i.e., those who had recordings that extended from baseline through washout). Circadian system functionality was evaluated by continuously monitoring wrist skin temperature using a temperature sensor (Thermochron iButton DS1921H; Maxim, Dallas, TX) (Sarabia et al. 2008). A nonparametric analysis was performed for each participant to characterize DST as previously described (Sarabia et al. 2008; Ortiz-Tudela et al. 2010). […]\nBriefly, this analysis includes the following parameters: (i) the inter-daily stability (the constancy of 24-hour rhythmic pattern over days, IS); (ii) intra-daily variability (rhythm fragmentation, IV); (iii) average of 10-minute intervals for the 10 hours with the minimum temperature (L10); (iv) average of 10-minute intervals for the 5 hours with the maximum temperature (M5) and the relative amplitude (RA), which was determined by the difference between M5 and L10, divided by the sum of both. Finally, the Circadian Function Index (CFI) was calculated by integrating IS, IV, and RA. […]"}, "[5]": {"test_system": "patients with PD and constipation", "test": "Phase 2 trial Stage 2: bowel function under daily oral dosing (stool diary, PAC-QOL, PAC-SYM)", "protocol": "Following successful screening, all subjects underwent a 14-day run-in period where the degree of constipation was assessed through a validated daily log (Zinsmeister et al. 2013) establishing baseline CSBMs/week. Subjects with an average of <3 CSBMs/week proceeded to dosing.\n(§2) In Stage 2, 34 patients were evaluated.\nThe primary efficacy outcome variable was whether or not a subject was a “success” or “failure”. This is an endpoint based on subject diary entries for the “fixed dose” period prior to the endpoint assessment defined as average complete stool frequency increase by 1 or more over baseline, or 3 or more complete spontaneous stools/week. The subject was deemed a “success” if s/he met one or more of the criteria listed above, otherwise the subject was deemed a “failure”. The primary analysis was based on all subjects with a baseline assessment and an assessment at the end of the “fixed-dose” period and was a comparison of the proportion of successes with 0.10 (the null hypothesis corresponding to no treatment effect)."}, "[6]": {"test_system": "patients with PD and constipation", "test": "Phase 2 trial: adverse events (MedDRA, CTCAE grading)", "protocol": "Tolerability limits included diarrhea or vomiting.\nas §2"}}, "note": "Entries after “also recorded” stand apart in the source; their conditions may differ."}
{"smiles": "CC(C)[C@@H](CC[C@@H](C)[C@H]1CC[C@H]2[C@@H]3[C@H](O)C[C@H]4C[C@@H](NCCCNCCCCN)CC[C@]4(C)[C@H]3CC[C@]12C)OS(=O)(=O)O", "note": "(single isomer, unassigned) [squalamine (ENT-01)]", "values": [{"measurement": "change of blood pressure at post medication measurement", "setting": "[1]; Stage 2 subjects with high or low blood pressure", "result": "subjects with high blood pressure demonstrated lower blood pressure at post medication measurement, while subjects with low blood pressure demonstrated higher blood pressure"}, {"measurement": "BP at V4 + 2 hrs post dose", "setting": "[1]; individual subjects", "result": 111, "unit": "mmHg"}, {"measurement": "oral bio-availability", "setting": "[2]", "result": "less than 0.3%"}, {"measurement": "time hallucinations did not return after discontinuation", "setting": "[3]; 1 patient", "result": 4, "unit": "weeks"}, {"measurement": "time hallucinations did not return after discontinuation", "setting": "[3]; another patient", "result": 2, "unit": "weeks"}, {"measurement": "patients in whom hallucinations and delusions improved or disappeared during treatment", "setting": "[3]; of those with hallucinations (5) or delusions (1) at baseline", "result": "5 of 6"}, {"measurement": "markers of healthy circadian function (IS, RA, CFI, IV)", "setting": "[4]; fixed dose versus baseline, 12 evaluable patients", "result": "improved all markers of healthy circadian function; also recorded: significant positive impact on the circadian rhythm of skin temperature"}, {"measurement": "circadian parameters during wash-out (IS, CFI)", "setting": "[4]; wash-out versus baseline", "result": "improvement persisted for several of these circadian parameters"}, {"measurement": "response rate (CSBM within 24 h of dosing on at least 2 of 3 days)", "setting": "[5]; Stage 2, daily oral dosing, 75 mg", "result": 26, "unit": "%"}, {"measurement": "CSBM, weekly average (mean, SD)", "setting": "[5]; Stage 2, fixed dose, n=34, baseline 1.2 (0.90)", "result": "3.8 (2.4) /week"}, {"measurement": "CSBM frequency", "setting": "[5]; patients later randomized to placebo (n=9), fixed dose period on drug, baseline 1.6", "result": 3.3, "unit": "CSBM/week"}, {"measurement": "CSBM frequency", "setting": "[5]; randomized cohort, treatment arm (n=6), fixed dose period, baseline 0.8", "result": 3.2, "unit": "CSBM/week"}, {"measurement": "CSBM frequency", "setting": "[5]; randomized cohort, treatment arm (n=6), randomized period 4-6 days, baseline 0.8", "result": 2.4, "unit": "CSBM/week"}, {"measurement": "CSBM frequency", "setting": "[5]; randomized cohort, treatment arm (n=6), washout, baseline 0.8", "result": 0.9, "unit": "CSBM/week"}, {"measurement": "Nausea, Mild", "setting": "[6]; Stage 1 (10 dosed)", "result": "4(40) n, %"}, {"measurement": "Diarrhea, adverse events by dose", "setting": "[6]; Stage 1, 25 mg", "result": 1}, {"measurement": "Nausea, adverse events by dose", "setting": "[6]; Stage 1, 25 mg", "result": 0}, {"measurement": "Vomiting, adverse events by dose", "setting": "[6]; Stage 1, 25 mg", "result": 0}, {"measurement": "Diarrhea, adverse events by dose", "setting": "[6]; Stage 1, 50 mg", "result": 1}, {"measurement": "Nausea, adverse events by dose", "setting": "[6]; Stage 1, 50 mg", "result": 0}, {"measurement": "Vomiting, adverse events by dose", "setting": "[6]; Stage 1, 50 mg", "result": 0}, {"measurement": "Diarrhea, adverse events by dose", "setting": "[6]; Stage 1, 75 mg", "result": 1}, {"measurement": "Nausea, adverse events by dose", "setting": "[6]; Stage 1, 75 mg", "result": 0}, {"measurement": "Vomiting, adverse events by dose", "setting": "[6]; Stage 1, 75 mg", "result": 0}, {"measurement": "Diarrhea, adverse events by dose", "setting": "[6]; Stage 1, 100 mg", "result": 0}, {"measurement": "Nausea, adverse events by dose", "setting": "[6]; Stage 1, 100 mg", "result": 1}, {"measurement": "Vomiting, adverse events by dose", "setting": "[6]; Stage 1, 100 mg", "result": 1}, {"measurement": "Diarrhea, adverse events by dose", "setting": "[6]; Stage 1, 125 mg", "result": 1}, {"measurement": "Nausea, adverse events by dose", "setting": "[6]; Stage 1, 125 mg", "result": 2}, {"measurement": "Vomiting, adverse events by dose", "setting": "[6]; Stage 1, 125 mg", "result": 1}, {"measurement": "Diarrhea, adverse events by dose", "setting": "[6]; Stage 1, 150 mg", "result": 1}, {"measurement": "Nausea, adverse events by dose", "setting": "[6]; Stage 1, 150 mg", "result": 0}, {"measurement": "Vomiting, adverse events by dose", "setting": "[6]; Stage 1, 150 mg", "result": 0}, {"measurement": "Diarrhea, adverse events by dose", "setting": "[6]; Stage 1, 175 mg", "result": 1}, {"measurement": "Nausea, adverse events by dose", "setting": "[6]; Stage 1, 175 mg", "result": 1}, {"measurement": "Vomiting, adverse events by dose", "setting": "[6]; Stage 1, 175 mg", "result": 0}, {"measurement": "Diarrhea, adverse events by dose", "setting": "[6]; Stage 1, 200 mg", "result": 0}, {"measurement": "Nausea, adverse events by dose", "setting": "[6]; Stage 1, 200 mg", "result": 2}, {"measurement": "Vomiting, adverse events by dose", "setting": "[6]; Stage 1, 200 mg", "result": 0}, {"measurement": "Difficulty falling asleep, Mild", "setting": "[6]; Stage 2 (34 dosed)", "result": "1(3) n, %"}, {"measurement": "Eye infection, Mild", "setting": "[6]; Stage 2 (34 dosed)", "result": "1(3) n, %"}, {"measurement": "Flatulence, Mild", "setting": "[6]; Stage 2 (34 dosed)", "result": "1(3) n, %"}, {"measurement": "Urinary retention, Mild", "setting": "[6]; Stage 2 (34 dosed)", "result": "1(3) n, %"}, {"measurement": "Urinary tract infection, Mild", "setting": "[6]; Stage 2 (34 dosed)", "result": "1(3) n, %"}, {"measurement": "Worsening hemorrhoid, Mild", "setting": "[6]; Stage 2 (34 dosed)", "result": "1(3) n, %"}, {"measurement": "Diarrhea, adverse events by dose", "setting": "[6]; Stage 2, 75 mg", "result": 7}, {"measurement": "Dizziness (lightheadedness included), adverse events by dose", "setting": "[6]; Stage 2, 75 mg", "result": 8}, {"measurement": "Nausea, adverse events by dose", "setting": "[6]; Stage 2, 75 mg", "result": 3}, {"measurement": "Diarrhea, adverse events by dose", "setting": "[6]; Stage 2, 100 mg", "result": 10}, {"measurement": "Dizziness (lightheadedness included), adverse events by dose", "setting": "[6]; Stage 2, 100 mg", "result": 7}, {"measurement": "Nausea, adverse events by dose", "setting": "[6]; Stage 2, 100 mg", "result": 12}, {"measurement": "Diarrhea, adverse events by dose", "setting": "[6]; Stage 2, 125 mg", "result": 3}, {"measurement": "Dizziness (lightheadedness included), adverse events by dose", "setting": "[6]; Stage 2, 125 mg", "result": 8}, {"measurement": "Nausea, adverse events by dose", "setting": "[6]; Stage 2, 125 mg", "result": 4}, {"measurement": "Diarrhea, adverse events by dose", "setting": "[6]; Stage 2, 150 mg", "result": 2}, {"measurement": "Dizziness (lightheadedness included), adverse events by dose", "setting": "[6]; Stage 2, 150 mg", "result": 2}, {"measurement": "Nausea, adverse events by dose", "setting": "[6]; Stage 2, 150 mg", "result": 11}, {"measurement": "Diarrhea, adverse events by dose", "setting": "[6]; Stage 2, 175 mg", "result": 1}, {"measurement": "Dizziness (lightheadedness included), adverse events by dose", "setting": "[6]; Stage 2, 175 mg", "result": 0}, {"measurement": "Nausea, adverse events by dose", "setting": "[6]; Stage 2, 175 mg", "result": 12}, {"measurement": "Diarrhea, adverse events by dose", "setting": "[6]; Stage 2, 200 mg", "result": 3}, {"measurement": "Nausea, adverse events by dose", "setting": "[6]; Stage 2, 200 mg", "result": 6}, {"measurement": "Diarrhea, adverse events by dose", "setting": "[6]; Stage 2, 225 mg", "result": 3}, {"measurement": "Nausea, adverse events by dose", "setting": "[6]; Stage 2, 225 mg", "result": 1}, {"measurement": "Diarrhea, adverse events by dose", "setting": "[6]; Stage 2, 250 mg", "result": 2}]}
